From US20240139188A1, “Arylamide Compounds For Treatment And Prevention Of Fungal Infections” (priority 2022, published 2024)
In brackets after ≈: the same amount, converted by molar mass.

Tests used:
[1] = test system: Aspergillus fumigatus; assay: In vitro susceptibility (MIC), macrobroth dilution; format: cell-based; conditions: A. fumigatus 10AF, drug alone
[2] = test system: A. fumigatus; assay: Protein kinase inhibitor (PKI) library screen with or without BRI; conditions: for growth, PKI (20 μM): PKI 20 μM alone; for growth, PKI (20 μM) + BRI (20 μM): PKI 20 μM together with BRI 20 μM; for activity at 20 µM: Aspergillus fumigatus, 48 h, read-out: growth, PKI (20 μM)
Experimental: A protein kinase inhibitors (PKI) library was also screened in combination with BRI. In total, 58 PKI were analyzed. Briefly, 100 μL of liquid MM containing 2.5×10^3 conidia/mL of the A. fumigatus wild-type strain plus 10% alamar blue was inoculated with increasing concentration of PKI (5-80 μM) in the presence (or not) of BRI (20μM) and incubated 48 hours at 37° C. without shaking. […] Plates were incubated for 48 hours at 37° C. without shaking. All experiments containing alamar blue were, after 48 hours incubation, read spectrophotometically by fluorescence and analyzed as previously described. Experiments were repeated at least three times.
To assess the mechanism of action of BRI, a collection of 58 protein kinase inhibitors (PKI, at a concentration of 20 μM; Table 4) was screened for A. fumigatus growth and corresponding metabolic activity alone or together with 20 μM BRI (Table 4).

Row | Molecule | MIC50 ([1]; lowest concentration causing 50% decrease in growth vs untreated control) [µg/mL] | MIC100 ([1]; lowest concentration without growth) [µg/mL] | growth, PKI (20 μM) [2] | growth, PKI (20 μM) + BRI (20 μM) [2] | activity at 20 µM [2] [%]
1 | C[C@@H](c1ncncc1F)[C@](O)(Cn1cncn1)c1ccc(F)cc1F [Voriconazole (VOR)] | 0.125 (≈ 0.358 µM) | 1 (≈ 2.86 µM) |  |  | 
2 | CCn1c(=O)c(-c2ccc(-c3cncs3)cc2Cl)cc2cnc(Nc3ccc(N4CCN(C)CC4)cc3)nc21 [FRAX597] |  |  | ++ (++: growth ≥80% compared to no treatment) | ++ (++: growth ≥80% compared to no treatment) | 
3 | CNC(=O)c1cccc(-c2ccc3c(N4CCOC[C@@H]4C)nc(N4CCOC[C@@H]4C)nc3n2)c1 [vistusertib] |  |  |  | ++ (++: growth ≥80% compared to no treatment) | > 80
4 | CNC(=O)c1cc(Oc2ccc(NC(=O)Nc3ccc(Cl)c(C(F)(F)F)c3)cc2)ccn1 [Sorafenib] |  |  |  | ++ (++: growth ≥80% compared to no treatment) | > 80
5 | CNc1ncc2cc(-c3ccc(-c4cccc(C)n4)cc3Cl)c(=O)n(C[C@H]3OC[C@H](N)CO3)c2n1 [G5555] |  |  |  | ++ (++: growth ≥80% compared to no treatment) | > 80
6 | O=C(NCCCNc1nc(Nc2cccc(NC(=O)N3CCCC3)c2)ncc1I)c1cccs1 [BX + 795] |  |  | ++ (++: growth ≥80% compared to no treatment) | ++ (++: growth ≥80% compared to no treatment) | 
7 | NS(=O)(=O)c1ccc(N/N=C2\C(=O)Nc3ccc(C(=O)NCc4ccncc4)cc32)cc1 [GW300657X] |  |  | ++ (++: growth ≥80% compared to no treatment) | ++ (++: growth ≥80% compared to no treatment) | 
8 | COc1ccc2[nH]c3c4[nH]c5ccc(OC)cc5c4c4c(c3c2c1)C(=O)NC4=O [GW296115X] |  |  | ++ (++: growth ≥80% compared to no treatment) | ++ (++: growth ≥80% compared to no treatment) | 
9 | COc1cc(F)c(F)c(Nc2ccc(I)cc2F)c1NS(=O)(=O)C1(C[C@H](O)CO)CC1 [refametinib] |  |  |  | ++ (++: growth ≥80% compared to no treatment) | > 80
10 | CC(C)COC(=O)c1ccc2c(c1)/C(=C/Nc1ccc(S(N)(=O)=O)cc1)C(=O)N2 [GW416981X] |  |  | ++ (++: growth ≥80% compared to no treatment) | ++ (++: growth ≥80% compared to no treatment) | 
11 | MK + 8353 |  |  | ++ (++: growth ≥80% compared to no treatment) | ++ (++: growth ≥80% compared to no treatment) | 
12 | O=C1Nc2ccc(I)cc2C1=Cc1cc(Br)c(O)c(Br)c1 [GW305074X] |  |  | ++ (++: growth ≥80% compared to no treatment) | ++ (++: growth ≥80% compared to no treatment) | 
13 | SR + 3677 |  |  | ++ (++: growth ≥80% compared to no treatment) | ++ (++: growth ≥80% compared to no treatment) | 
14 | Cc1nc(Nc2n[nH]c3c2CN(C(=O)N[C@H](CN(C)C)c2ccccc2)C3(C)C)c2sccc2n1 [PF + 3758309] |  |  | ++ (++: growth ≥80% compared to no treatment) | ++ (++: growth ≥80% compared to no treatment) | 
15 | NS(=O)(=O)c1ccc(N/N=C2\C(=O)Nc3ccc(C(=O)NCCCn4ccnc4)cc32)cc1 [GW290597X] |  |  | ++ (++: growth ≥80% compared to no treatment) | ++ (++: growth ≥80% compared to no treatment) | 
16 | COc1cc2c(Nc3cccc(NC(=O)c4ccccc4)c3)ncnc2cc1OCCCN1CCOCC1 [GSK223810A] |  |  |  | ++ (++: growth ≥80% compared to no treatment) | > 80
17 | Nc1ncnc2c1c(I)cn2[C@@H]1O[C@H](CO)[C@@H](O)[C@H]1O [5 + iodo tubercidin] |  |  | + (+: growth ≤60% compared to no treatment) | ++ (++: growth ≥80% compared to no treatment) | 
18 | CCc1cncnc1N1CCN(Cc2nc3ccc(C(F)(F)F)cc3[nH]2)CC1 [PF + 4708671] |  |  | ++ (++: growth ≥80% compared to no treatment) | ++ (++: growth ≥80% compared to no treatment) | 
19 | O=c1ncn2nc(Sc3ccc(F)cc3F)ccc2c1-c1c(Cl)cccc1Cl [VX + 745] |  |  | ++ (++: growth ≥80% compared to no treatment) | ++ (++: growth ≥80% compared to no treatment) | 
20 | Cn1cc(C2=C(c3cn(C4CCN(Cc5ccccn5)CC4)c4ccccc34)C(=O)NC2=O)c2ccccc21 [enzastaurin] |  |  |  | ++ (++: growth ≥80% compared to no treatment) | > 80
21 | CCc1nc(-c2cccc(C)c2)c(-c2ccnc(NC(=O)c3ccccc3)c2)s1 [TAK + 715] |  |  | ++ (++: growth ≥80% compared to no treatment) | ++ (++: growth ≥80% compared to no treatment) | 
22 | Cn1cc(C2=C(c3ccc(Cl)cc3Cl)C(=O)NC2=O)c2ccccc21 [SB 216763] |  |  |  | ++ (++: growth ≥80% compared to no treatment) | > 80
23 | COc1ccc(-c2ccc3c(N4CCOC[C@@H]4C)nc(N4CCOC[C@@H]4C)nc3n2)cc1CO [AZD + 8055] |  |  | ++ (++: growth ≥80% compared to no treatment) | ++ (++: growth ≥80% compared to no treatment) | 

Row | Molecule | MIC50 ([1]; lowest concentration causing 50% decrease in growth vs untreated control) [µg/mL] | MIC100 ([1]; lowest concentration without growth) [µg/mL] | growth, PKI (20 μM) [2] | growth, PKI (20 μM) + BRI (20 μM) [2] | activity at 20 µM [2] [%]
24 | N#Cc1ccc2[nH]c(O)c(-c3ccc(CN4CCOCC4)cn3)c2c1 [AZD1080] |  |  |  | ++ (++: growth ≥80% compared to no treatment) | > 80
25 | O=C(Nc1ccc2[nH]nc(-c3ccncc3)c2c1)[C@@H]1CCN(CC(=O)N2CCN(c3ccc(-c4ncccn4)cc3)CC2)C1 [SCH772984] |  |  |  | ++ (++: growth ≥80% compared to no treatment) | > 80
26 | CC(C)(C)Cn1c(N)nc2ccc(-c3[nH]c(C(C)(C)C)nc3-c3ccc(F)cc3)nc21 [ralimetinib] |  |  |  | ++ (++: growth ≥80% compared to no treatment) | > 80
27 | C[C@@]1(c2ncncc2F)NC(=O)c2cc(-c3cn[nH]c3)ccc21 [LY3177833] |  |  | ++ (++: growth ≥80% compared to no treatment) | ++ (++: growth ≥80% compared to no treatment) | 
28 | LY + 2584702 |  |  | ++ (++: growth ≥80% compared to no treatment) | ++ (++: growth ≥80% compared to no treatment) | 
29 | CCN1C(=O)CNc2ncc(-c3ccc(-c4nc[nH]n4)nc3C)nc21 [CC + 115] |  |  | ++ (++: growth ≥80% compared to no treatment) | ++ (++: growth ≥80% compared to no treatment) | 
30 | Fc1ccc(-c2nn3ccccc3c2-c2ccncc2)cc1 [GW434756X] |  |  | ++ (++: growth ≥80% compared to no treatment) | ++ (++: growth ≥80% compared to no treatment) | 
31 | NS(=O)(=O)c1ccc(N/N=C2\C(=O)Nc3ccc(C(=O)NCCc4c[nH]cn4)cc32)cc1 [GW300660X] |  |  | ++ (++: growth ≥80% compared to no treatment) | ++ (++: growth ≥80% compared to no treatment) | 
32 | Cc1ccc(-c2csc3ncnc(SCCC(=O)O)c23)cc1 [TTP 22] |  |  | ++ (++: growth ≥80% compared to no treatment) | ++ (++: growth ≥80% compared to no treatment) | 
33 | O=C(O)c1ccc2c(c1)nc(Nc1cccc(Cl)c1)c1cnccc12 [CX + 4945] |  |  | ++ (++: growth ≥80% compared to no treatment) | ++ (++: growth ≥80% compared to no treatment) | 
34 | Cc1cnc(-c2cnc(NCCNc3ccc(C#N)cn3)nc2-c2ccc(Cl)cc2Cl)[nH]1 [CHIR + 99021] |  |  | ++ (++: growth ≥80% compared to no treatment) | ++ (++: growth ≥80% compared to no treatment) | 
35 | Clc1ccc(C2(c3ccc(-c4cn[nH]c4)cc3)CCNCC2)cc1 [AT7867] |  |  | ++ (++: growth ≥80% compared to no treatment) | ++ (++: growth ≥80% compared to no treatment) | 
36 | O=c1[nH]c(C2CCCN2)nc2c1oc1ccc(Cl)cc12 (stereo not drawn) [XL413] |  |  | ++ (++: growth ≥80% compared to no treatment) | ++ (++: growth ≥80% compared to no treatment) | 
37 | Nc1ccc(-c2ccc3ncc4ccc(=O)n(-c5cccc(C(F)(F)F)c5)c4c3c2)cn1 [Torin 2] |  |  | ++ (++: growth ≥80% compared to no treatment) | ++ (++: growth ≥80% compared to no treatment) | 
38 | O=C1NC(=O)C(c2cnc3ccccn23)=C1c1cn2c3c(cc(F)cc13)CN(C(=O)N1CCCCC1)CC2 [LY2090314] |  |  |  | ++ (++: growth ≥80% compared to no treatment) | > 80
39 | NC(=O)c1ccc(-c2nc(-c3ccc4c(c3)OCCO4)c(-c3ccccn3)[nH]2)cc1 [D4476] |  |  | ++ (++: growth ≥80% compared to no treatment) | ++ (++: growth ≥80% compared to no treatment) | 
40 | Cn1cnc2c(F)c(Nc3ccc(Br)cc3Cl)c(C(=O)NOCCO)cc21 [selumetinib] |  |  |  | ++ (++: growth ≥80% compared to no treatment) | > 80
41 | C[S+]([O-])c1ccc(-c2nc(-c3ccc(F)cc3)c(-c3ccncc3)[nH]2)cc1 (stereo not drawn) [SB + 203580] |  |  | ++ (++: growth ≥80% compared to no treatment) | ++ (++: growth ≥80% compared to no treatment) | 
42 | PF + 670462 |  |  | ++ (++: growth ≥80% compared to no treatment) | ++ (++: growth ≥80% compared to no treatment) | 
43 | CC1(N)CCN(c2cccnc2NC(=O)c2nc(-c3ncccc3C(F)(F)F)cnc2N)CC1 [darovasertib] |  |  |  | ++ (++: growth ≥80% compared to no treatment) | > 80
44 | CCOc1cc(N2CCC(O)CC2)ccc1Nc1ncc2c(n1)N(C)c1ccccc1C(=O)N2C [XMD8 + 92] |  |  | ++ (++: growth ≥80% compared to no treatment) | ++ (++: growth ≥80% compared to no treatment) | 
45 | O=C1NCCc2[nH]c(-c3ccncc3)cc21 [PHA + 767491] |  |  | ++ (++: growth ≥80% compared to no treatment) | ++ (++: growth ≥80% compared to no treatment) | 
